Assay results published in publication PMC4134498 (British Journal of Cancer, 2014).
“Also recorded” adds a separate entry of the source. Marks after values point to notes of the source that are not given here.

Columns and labels:
[1] = test system: patients with advanced solid tumours; assay: Phase I study of olaparib capsules plus PLD; type: in vivo
[2] = ref Fong et al, 2009; cited from earlier work
[3] = all olaparib cohorts + PLD 40 mg m^−2, Total (n=44)
[4] = olaparib 50 mg bid 7 day + PLD 40 mg m^−2 (n=3)
[5] = olaparib 100 mg bid 7 day + PLD 40 mg m^−2 (n=3)
[6] = olaparib 100 mg bid 28 day + PLD 40 mg m^−2 (n=4)
[7] = olaparib 200 mg bid 7 day + PLD 40 mg m^−2 (n=3)
[8] = olaparib 200 mg bid 28 day + PLD 40 mg m^−2 (n=7)
[9] = olaparib 400 mg bid 7 day + PLD 40 mg m^−2 (n=12)
[10] = olaparib 400 mg bid 28 day + PLD 40 mg m^−2 (n=12)
[11] = olaparib + PLD, all cohorts (n=2)
[12] = olaparib + PLD, all cohorts, n=44

For O=C(c1cc(Cc2n[nH]c(=O)c3ccccc23)ccc1F)N1CCN(C(=O)C2CC2)CC1 [olaparib], the “Anorexia, patients with grade ⩾3 AE” value [1, 3] was 2 (5) n (%), the “Anorexia, patients with treatment-related AE” value [1, 3] was 12 (27) n (%) and the “Asthenia, patients with grade ⩾3 AE” value [1, 3] was 1 (2) n (%). For the same molecule, the “Asthenia, patients with treatment-related AE” value [1, 3] was 21 (48) n (%), the “Decreased neutrophil count, patients with grade ⩾3 AE” value [1, 3] was 9 (20) n (%) and the “Decreased neutrophil count, patients with treatment-related AE” value [1, 3] was 13 (30) n (%). For the same molecule, the “Nausea, patients with grade ⩾3 AE” value [1, 3] was 5 (11) n (%), the “Nausea, patients with treatment-related AE” value [1, 3] was 28 (64) n (%) and the “PPES, patients with grade ⩾3 AE” value [1, 3] was 1 (2) n (%). The “PPES, patients with treatment-related AE” value [1, 3] was 11 (25) n (%), the “Stomatitis, patients with grade ⩾3 AE” value [1, 3] was 7 (16) n (%) and the “Stomatitis, patients with treatment-related AE” value [1, 3] was 32 (73) n (%). The “Vomiting, patients with grade ⩾3 AE” value [1, 3] was 1 (2) n (%), the “Vomiting, patients with treatment-related AE” value [1, 3] was 13 (30) n (%) and the “Asthenia, patients with treatment-related AE” value [1, 4] was 2 n. The “Decreased neutrophil count, patients with grade ⩾3 AE” value [1, 4] was 2 n, the “Decreased neutrophil count, patients with treatment-related AE” value [1, 4] was 2 n and the “Nausea, patients with treatment-related AE” value [1, 4] was 3 n. For the same molecule, the “Stomatitis, patients with treatment-related AE” value [1, 4] was 3 ^b n, the “Asthenia, patients with treatment-related AE” value [1, 5] was 1 n and the “Decreased neutrophil count, patients with grade ⩾3 AE” value [1, 5] was 3 n. For the same molecule, the “Decreased neutrophil count, patients with treatment-related AE” value [1, 5] was 3 n, the “Nausea, patients with grade ⩾3 AE” value [1, 5] was 1 n and the “Nausea, patients with treatment-related AE” value [1, 5] was 2 n. The “Stomatitis, patients with grade ⩾3 AE” value [1, 5] was 2 ^c n, the “Stomatitis, patients with treatment-related AE” value [1, 5] was 3 n and the “Vomiting, patients with treatment-related AE” value [1, 5] was 1 n. For the same molecule, the “Anorexia, patients with grade ⩾3 AE” value [1, 6] was 1 n, the “Anorexia, patients with treatment-related AE” value [1, 6] was 1 n and the “Asthenia, patients with treatment-related AE” value [1, 6] was 2 n. For the same molecule, the “Decreased neutrophil count, patients with grade ⩾3 AE” value [1, 6] was 1 n, the “Decreased neutrophil count, patients with treatment-related AE” value [1, 6] was 2 n and the “Nausea, patients with treatment-related AE” value [1, 6] was 2 n. For the same molecule, the “Stomatitis, patients with treatment-related AE” value [1, 6] was 2 n, the “Asthenia, patients with treatment-related AE” value [1, 7] was 2 n and the “Decreased neutrophil count, patients with treatment-related AE” value [1, 7] was 1 n. The “Nausea, patients with treatment-related AE” value [1, 7] was 2 n, the “PPES, patients with treatment-related AE” value [1, 7] was 1 n and the “Stomatitis, patients with treatment-related AE” value [1, 7] was 2 n. For the same molecule, the “Anorexia, patients with grade ⩾3 AE” value [1, 8] was 1 n, the “Anorexia, patients with treatment-related AE” value [1, 8] was 3 n and the “Asthenia, patients with treatment-related AE” value [1, 8] was 2 n. For the same molecule, the “Decreased neutrophil count, patients with grade ⩾3 AE” value [1, 8] was 1 n, the “Decreased neutrophil count, patients with treatment-related AE” value [1, 8] was 1 n and the “Nausea, patients with treatment-related AE” value [1, 8] was 3 n. For the same molecule, the “PPES, patients with treatment-related AE” value [1, 8] was 2 n, the “Stomatitis, patients with grade ⩾3 AE” value [1, 8] was 1 n and the “Stomatitis, patients with treatment-related AE” value [1, 8] was 5 n. For the same molecule, the “Vomiting, patients with treatment-related AE” value [1, 8] was 3 n, the “Anorexia, patients with treatment-related AE” value [1, 9] was 4 n and the “Asthenia, patients with grade ⩾3 AE” value [1, 9] was 1 n. For the same molecule, the “Asthenia, patients with treatment-related AE” value [1, 9] was 6 n, the “Decreased neutrophil count, patients with grade ⩾3 AE” value [1, 9] was 1 n and the “Decreased neutrophil count, patients with treatment-related AE” value [1, 9] was 2 n. For the same molecule, the “Nausea, patients with grade ⩾3 AE” value [1, 9] was 4 n, the “Nausea, patients with treatment-related AE” value [1, 9] was 8 n and the “PPES, patients with treatment-related AE” value [1, 9] was 4 n. For the same molecule, the “Stomatitis, patients with grade ⩾3 AE” value [1, 9] was 2 n, the “Stomatitis, patients with treatment-related AE” value [1, 9] was 6 n and the “Vomiting, patients with grade ⩾3 AE” value [1, 9] was 1 n. The “Vomiting, patients with treatment-related AE” value [1, 9] was 6 n, the “Anorexia, patients with treatment-related AE” value [1, 10] was 4 n and the “Asthenia, patients with treatment-related AE” value [1, 10] was 6 n. For the same molecule, the “Decreased neutrophil count, patients with grade ⩾3 AE” value [1, 10] was 1 n, the “Decreased neutrophil count, patients with treatment-related AE” value [1, 10] was 2 n and the “Nausea, patients with treatment-related AE” value [1, 10] was 8 n. For the same molecule, the “PPES, patients with grade ⩾3 AE” value [1, 10] was 1 n, the “PPES, patients with treatment-related AE” value [1, 10] was 4 n and the “Stomatitis, patients with grade ⩾3 AE” value [1, 10] was 2 n. The “Stomatitis, patients with treatment-related AE” value [1, 10] was 11 n, the “Vomiting, patients with treatment-related AE” value [1, 10] was 3 n and the “patients with alterations in neutrophil count” value ([1]; olaparib + PLD, all cohorts) was 30%. For the same molecule, the “Grade ⩾3 haematologic alterations: haemoglobin” value [1, 11] was 5%, the “Grade ⩾3 haematologic alterations: white blood cells” value [1, 11] was 5% and the “Grade ⩾3 haematologic alterations: platelets” value ([1]; olaparib + PLD, all cohorts (n=3)) was 7%. For the same molecule, the “alterations in neutrophil count reported as AEs” value [1, 12] was 13 n, the “overall incidence of CTCAE grade ⩾3 events” value [1, 12] was 61% and the “patients discontinued/withdrawn because of treatment-related AEs” value [1, 12] was “seven”. For the same molecule, the “patients who died during the study” value [1, 12] was “Five”, the “patients with treatment-related serious AEs” value [1, 12] was “five” and the “patients with serious AEs” value ([1]; olaparib + PLD, all cohorts, n=44 (12 patients)) was 27%. For the same molecule, the “patients with serious AEs of pneumonitis” value ([1]; olaparib + PLD, 100 mg 28-day, 200 mg 28-day and 400 mg 7-day cohorts) was “three”, the “MTD of olaparib with PLD” value ([1]; up to continuous olaparib 400 mg bid + PLD 40 mg m^−2) was “not reached; also recorded: could not be determined” and the “MTD of olaparib monotherapy (capsule formulation)” value [2] was 400 mg twice daily (bid).
